Data: US6365621B1, “Remedies or preventives for intractable epilepsy” (Pharmaceutical Co., Ltd., priority 1998, dated 2002)

Test system: amygdala kindling development in rats
Assay: Development/establishment of amygdala kindling under daily dosing
Format: in vivo, rat
Protocol: The present inventors have studied the effects of nefiracetam on an development process of the amygdaloid kindled seizures and on establishment of kindling through a method described below, and have determined the efficacy of nefiracetam. The evolution process of kindling is tested by use of rats, in which electrodes are placed in the amygdala and kindling stimulation (50 Hz sine wave, duration of 1 second, once per day) is applied at specific intervals for restoration. On the first day, an afterdischarge-provocation threshold is determined without administration of a pharmaceutical. From the second day, kindling stimulation having intensity of the afterdischarge-provocative threshold is applied to rats administered with a specimen at a variety of administration doses, to thereby investigate an effect of the specimen on the evolution process of kindling.
In this test, the following parameters were evaluated: seizure stage in the process of development of amygdala kindling and afterdischarge duration at the stimulated amygdala.
[Method] Male Wistar rats (5 to 6 weeks old, weight: 200-250 g, Tokyo Jikken Dobutsu) were used. For each rat, in a manner similar to that in Example 1, there were performed anesthetization, setting of an electrode on the amygdala, and fixation of the electrode at the cranial bone. After a recovery period of at least two weeks, kindling stimulation was initiated.
Kindling stimulation was performed for one second per day with a sine wave of 50 Hz. On the first day, the afterdischarge threshold was determined, and from the second day, kindling stimulation was performed at the intensity of the threshold. On the first day, nefiracetam was not administered, in order to determine the threshold. For twenty days from the second day, a dose of nefiracetam (45, 90, or 180 mg/kg) was administered orally, and then kindling stimulation was performed 90 minutes after administration. After nefiracetam was administered for twenty days, kindling stimulation was performed without administration for an additional seven days.

[1] = Test 1, 90 mg/kg p.o. daily for twenty days
[2] = Test 2, 45 mg/kg p.o. daily for twenty days
[3] = Test 2, 180 mg/kg p.o. daily for twenty days

Cc1cccc(C)c1NC(=O)CN1CCCC1=O [nefiracetam, N-(2,6-dimethylphenyl)-2-(2-oxo-1-pyrrolidinyl)acetamide]
Day on which stage 5 was reached (90 mg/kg, typical rat (control: ninth day)): tenth day
Day on which seizure stage began to progress (90 mg/kg, typical rat (control: third day)): sixth day
Number of stimulations until the completion of stage 5 versus control rats (45, 90 or 180 mg/kg p.o. daily): no difference was observed
Number of samples showing an increase in afterdischarge threshold/total samples [1]: 3/6
Number of samples showing stage 5 intermittently/total samples [1]: 4/6
Number of samples showing an increase in afterdischarge threshold/total samples [2]: 0/4
Number of samples showing stage 5 intermittently/total samples [2]: 0/4
Number of samples showing an increase in afterdischarge threshold/total samples [3]: 2/6
Number of samples showing stage 5 intermittently/total samples [3]: 5/6
Stimulation intensity at which afterdischarge was shown (one nefiracetam-administered rat, eleventh day): 150 μA
Seizure stage (one nefiracetam-administered rat, eleventh day, 150 μA): 4
